Test results from patent publication US20240307374A1, “FORMULATION OF FURIN INHIBITOR FOR INHALATION” (BP ASSET V, INC., priority 2021, published 2024).
Where a name gives a salt, the structure may show the parent alone. Marks after values point to notes of the source that are not given here.

Legend:
Type in all cases: physicochemical
[1] = DVS (dynamic vapor sorption) moisture uptake; settings: for Moisture Uptake (DVS): 25° C.; for form change after DVS test (XRPD): XRPD before and after DVS
Description: (FIG. 5). Sample weight decreased rapidly when humidity decreased from 10% to 0%, which might be caused by loss of crystalline water.
DVS was measured via a SMS (Surface Measurement Systems) DVS Intrinsic.

[2] = Approximate solubility at RT; settings: CHCl3, RT, solvent for freeform isolation
Description: Four freeform isolation experiments were performed in different solvent with different acids. Solids were obtained in DCM/HCl and CHCl3/HCl system.
Approximately 2 mg solids were added into a 3-mL glass vial. Solvents in the following table were then added stepwise (50-50-200-700[…] for each step) into the vials and stirred until the solids were dissolved or a total volume of 1 mL was reached. The solubility results were used to guide the solvent selection in polymorph formation.

[3] = Equilibrium solubility in pH buffers (3.0-8.0), 20% captisol and water; settings: 24 hrs; for S: solubility: RT
Description: Additional solids were added into the sample to generate suspension if clear solution obtained. The suspension was equilibrated via stirring (1000 rpm). The suspension was centrifuged to obtain precipitate and supernatants.
Solubility and pH were tested for the supernatants after filtration, and isolated precipitate was tested by XRPD.
(§1) • 1. pH=3.0 buffer (50 mM HCl+KCl): Weigh 365.39 mg KCl into a 100 mL volumetric flask (VF), and add 0.1 mL 1M HCl into the VF, and dilute to volume with water. • 2. pH=4.0 buffer (50 mM citrate): Weigh 56.74 mg citric acid and 60.18 mg trisodium citrate into a 10 mL volumetric flask, and dilute to volume with water. • 3. pH=5.0 buffer (50 mM citrate) Weigh 11.12 mg citric acid and 95.38 mg trisodium citrate into a 10 mL volumetric flask, and dilute to volume with water. • 4. pH=6.0 buffer (50 mM citrate) Weigh 11.04 mg citric acid and 130.2 mg trisodium citrate into a 10 mL volumetric flask, and dilute to volume with water. • 5. pH=6.0 buffer (50 mM phosphate) Weigh 8.7 mg Na2HPO4 and 52.6 mg NaH2PO4 into a 10 mL volumetric flask, and dilute to volume with water. • 6. pH=7.0 buffer (50 mM phosphate) Weigh 23.47 mg Na2HPO4 and 43.34 mg NaH2PO4into a 10 mL volumetric flask, and dilute to volume with water. • 7. pH=8.0 buffer (50 mM phosphate) Weigh 31.64 mg Na2HPO4 and 67.18 mg NaH2PO4into a 10 mL volumetric flask, and dilute to volume with water.

Grinding stability = settings: ~30 mg ground manually in a mortar for about 5 minutes
[4] = Equilibrium solubility in pH buffers (pH 4.0-6.0) with pH adjustment; settings: for S: solubility: with pH adjustment
Description: In details, ˜5 mg of solids were suspended into 1 mL of each medium with dosing conc. at ˜5 mg/mL. Additional solids were added into the sample to generate suspension if clear solution was obtained. The suspension was equilibrated via stirring (1000 rpm) for 24 hours. The pH of the suspension was adjusted when the final pH shifted above 0.3, and the samples were stirred for another 1.5 hours after pH adjustment. The suspension was centrifuged to obtain precipitate and supernatants. Solubility, purity and pH were tested for the supernatants after filtration, and isolated precipitate was tested by XRPD.
as §1

[5] = pH = 3.0 buffer (50 mM HCl + KCl)
[6] = pH = 4.0 buffer (50 mM citrate)
[7] = pH = 5.0 buffer (50 mM citrate)
[8] = pH = 6.0 buffer (50 mM citrate)
[9] = pH = 7.0 buffer (50 mM phosphate)
[10] = pH = 8.0 buffer (50 mM phosphate)
[11] = pH = 6.0 buffer (50 mM phosphate)

Structure (SMILES): CC(=O)NCC1CCN(Cc2cc(Oc3ccc(N4CCN(CCC(=O)O)CC4)nc3)nc(-c3cc(Cl)cc(Cl)c3)c2)CC1 [starting material]
- Moisture Uptake (DVS) ([1]; from 10% RH to 80% RH): 0.7%
- form change after DVS test (XRPD) [1]: no form change
- solubility [2]: S > 50.5 mg/mL

Structure (SMILES): CC(=O)NCC1CCN(Cc2cc(Oc3ccc(N4CCN(CCC(=O)O)CC4)nc3)nc(-c3cc(Cl)cc(Cl)c3)c2)CC1 [HCl salt Type F]
- Moisture Uptake (DVS) ([1]; from 20% RH to 80% RH): 1.4 (from 20% RH to 80% RH)
- form change after DVS test (XRPD) [1]: No form change
- solubility at 24 h ([3]; 50 mM pH buffers, pH 3.0-8.0, 21 °C, pH 3, aqueous buffer, thermodynamic from solid, 50 mM pH buffers pH 3.0-8.0, RT, read-out: solubility in pH buffers (overall bound)): < 8000 µg/mL
- pH of supernatant (final pH) ([3]; 20% Captisol (pH = 5.0, w/v)): 3.5
- S: solubility ([3]; 20% Captisol (pH = 5.0, w/v)): >48.0^1 mg/mL
- FC: form change (XRPD of precipitate) ([3]; H2O): 5 (1/2/3/4/5: new Form 1/2/3/4/5)
- pH of supernatant (final pH) ([3]; H2O): 2.4
- S: solubility ([3]; H2O): 4.24 mg/mL
- FC: form change (XRPD of precipitate) [3, 5]: 5 (1/2/3/4/5: new Form 1/2/3/4/5)
- pH of supernatant (final pH) [3, 5]: 2.7
- S: solubility [3, 5]: 2.77 mg/mL
- FC: form change (XRPD of precipitate) [3, 6]: Low (Low: low crystallinity)
- pH of supernatant (final pH) [3, 6]: 3.9
- S: solubility [3, 6]: 1.12 mg/mL
- FC: form change (XRPD of precipitate) [3, 7]: Low (Low: low crystallinity)
- pH of supernatant (final pH) [3, 7]: 5.0
- S: solubility [3, 7]: 2.64 mg/mL
- FC: form change (XRPD of precipitate) [3, 8]: A^
- pH of supernatant (final pH) [3, 8]: 5.8
- S: solubility [3, 8]: 0.62 mg/mL
- FC: form change (XRPD of precipitate) [3, 9]: A^+
- pH of supernatant (final pH) [3, 9]: 6.5
- S: solubility [3, 9]: 0.06 mg/mL
- FC: form change (XRPD of precipitate) [3, 10]: A^+
- pH of supernatant (final pH) [3, 10]: 7.2
- S: solubility [3, 10]: 0.02 mg/mL
- crystallinity after grinding (XRPD) (Grinding stability): decreased after grinding
- solubility at 24 h ([4]; 50 mM pH 4.0-6.0 buffers, pH 4, aqueous buffer, thermodynamic from solid, 50 mM pH 4.0-6.0 buffers with pH adjustment, RT, read-out: solubility in pH buffers (overall bound)): < 6800 µg/mL
- Area % (purity of supernatant) [4, 6]: 99.0 Area %
- FC: form change (XRPD of precipitate) [4, 6]: Low (Low; low crystallinity)
- pH (final, after adjustment where adjusted) [4, 6]: 4.0
- S: solubility ([4]; pH = 4.0 buffer (50 mM citrate), RT): 1.52 mg/mL
- Area % (purity of supernatant) [4, 7]: 99.6 Area %
- FC: form change (XRPD of precipitate) [4, 7]: Low (Low; low crystallinity)
- pH (final, after adjustment where adjusted) [4, 7]: 4.9
- S: solubility ([4]; pH = 5.0 buffer (50 mM citrate), RT): 2.32 mg/mL
- Area % (purity of supernatant) [4, 8]: 99.0 Area %
- FC: form change (XRPD of precipitate) [4, 8]: 8 (3/4/6/7/8: new Form 3/4/6/7/8)
- pH (final, after adjustment where adjusted) [4, 8]: 5.7
- S: solubility ([4]; pH = 6.0 buffer (50 mM citrate), RT): 1.15 mg/mL
- Area % (purity of supernatant) [4, 11]: 98.9 Area %
- FC: form change (XRPD of precipitate) [4, 11]: Low (Low; low crystallinity)
- pH (final, after adjustment where adjusted) [4, 11]: 5.9*
- pH before adjustment (in brackets) ([4]; pH = 6.0 buffer (50 mM phosphate), 24 hours): (3.9)
- S: solubility ([4]; pH = 6.0 buffer (50 mM phosphate), RT): 0.43 mg/mL
